We go through 13 molecules from ChEMBL document CHEMBL1201862, “PubChem BioAssay data set” (2004).

Structures are written as SMILES.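 These data come from cells grown in 96-well plates and exposed to compound for 48 hours at five concentrations. Abbreviation: GI50, concentration required for 50% inhibition of growth.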 The source made the active and inactive calls. No stated cut-off is given here; in the data, active = GI50 up to about 1.1 µM and inactive = higher. Bounds are passed on as bounds.

Among the test systems are M14; COLO 205; SN12C; LOX IMVI; SK-MEL-28; HCT-15; RPMI-8226; RXF 393; EKVX; SW-620; NCI-H23; NCI-H226; NCI-H460; ACHN; CAKI-1; SNB-75.
Common to all, as to experiment: NCI anticancer screen, dose series, 48 h

With `O=C1c2ccccc2C(=O)N1CCCOCc1cnc(O)nc1O`, the GI50 in the assay on M14 is > 100 µM (inactive); in the assay with COLO 205 it was > 100 µM (inactive); in the assay with SN12C it was > 100 µM (inactive); in the assay on LOX IMVI, > 100 µM (inactive); in the assay on SK-MEL-28 it was > 100 µM (inactive); in the assay with HCT-15 it was above 100 µM. Also, the GI50 in the assay with RPMI-8226, in the assay on RXF 393, with EKVX, in the assay on SW-620, in the assay on NCI-H23 and in the assay on NCI-H226 was > 100 µM (inactive) throughout. Moreover, the GI50 in the assay with NCI-H460, in the assay with ACHN, with CAKI-1 and in the assay with SNB-75 was > 100 µM (inactive) throughout.

Take `CCOC(=O)c1ccc(/N=N\c2ccc(N(CCC#N)CCC#N)cc2C)cc1`: the GI50 was > 100 µM (inactive) with M14; > 100 µM (inactive) with COLO 205; > 100 µM (inactive) in the assay on SN12C; > 100 µM (inactive) in the assay with LOX IMVI; above 100 µM in the assay on HCT-15; > 100 µM (inactive) with RPMI-8226. Moreover, the GI50 was > 100 µM (inactive) with RXF 393; > 100 µM (inactive) with EKVX; > 100 µM (inactive) in the assay on SW-620; 95.1 µM (inactive) in the assay on NCI-H23; > 100 µM (inactive) with NCI-H226; > 100 µM (inactive) with ACHN. Further, the GI50 with CAKI-1 is > 100 µM (inactive).

On to `CC1=NN(c2ccccc2)C(=O)C1/N=N/c1ccc(Br)c(C)c1` (stereo unspecified), for which the GI50 in the assay with M14 is > 100 µM (inactive); in the assay on COLO 205, > 100 µM (inactive); with SN12C it was > 100 µM (inactive); with SK-MEL-28 it was > 100 µM (inactive); in the assay with HCT-15, above 100 µM; with RPMI-8226, > 100 µM (inactive). Further, the GI50 with RXF 393, in the assay on EKVX, with SW-620, in the assay with NCI-H23, with NCI-H226 and in the assay with NCI-H460 was > 100 µM (inactive) each time. For the same molecule, the GI50 with ACHN, in the assay with CAKI-1 and with SNB-75 was > 100 µM (inactive) throughout.

Regarding `C/C(=N/O)C1CC=C(S(=O)(=O)c2ccccc2)C1` (stereo unspecified), the GI50 is > 100 µM (inactive) with M14; > 100 µM (inactive) in the assay with COLO 205; > 100 µM (inactive) in the assay on SN12C; > 100 µM (inactive) in the assay with LOX IMVI; > 100 µM (inactive) in the assay on SK-MEL-28; above 100 µM in the assay with HCT-15. The GI50 in the assay with RPMI-8226, in the assay with RXF 393, in the assay on SW-620, in the assay on NCI-H23, in the assay on NCI-H226 and in the assay with NCI-H460 was > 100 µM (inactive) each time. For the same molecule, the GI50 with ACHN, in the assay with CAKI-1 and in the assay on SNB-75 was > 100 µM (inactive) in each case.

As for `CC(C)(C)C1CCC2c3c([nH]c4ncccc34)C3C(=O)N(c4ccccc4)C(=O)C3C2C1` (stereo unspecified), the GI50 is > 100 µM (inactive) in the assay on M14; > 100 µM (inactive) in the assay with COLO 205; 88.1 µM (inactive) in the assay on SN12C; > 100 µM (inactive) in the assay with LOX IMVI; > 100 µM (inactive) with SK-MEL-28; above 100 µM with HCT-15. Besides, the GI50 in the assay with RPMI-8226, in the assay with RXF 393, with EKVX, with SW-620, in the assay with NCI-H23 and in the assay with NCI-H226 was > 100 µM (inactive) throughout. Moreover, the GI50 is > 100 µM (inactive) in the assay with NCI-H460, > 100 µM (inactive) in the assay with ACHN, > 100 µM (inactive) in the assay on CAKI-1 and 24.6 µM (inactive) in the assay with SNB-75.

On to `O=C1C2=C(CC3C(C2)C3(Br)Br)C(=O)C2=C1CC1C(C2)C1(Br)Br` (stereo unspecified), for which the GI50 is > 100 µM (inactive) in the assay with M14; > 100 µM (inactive) in the assay with COLO 205; > 100 µM (inactive) with SN12C; 82.4 µM (inactive) in the assay on LOX IMVI; > 100 µM (inactive) in the assay on SK-MEL-28; above 100 µM in the assay with HCT-15. Further, the GI50 in the assay on RXF 393, in the assay on EKVX, in the assay with NCI-H23, with NCI-H226, in the assay on NCI-H460 and with ACHN was > 100 µM (inactive) each time. Besides, the GI50 in the assay on CAKI-1 and in the assay on SNB-75 was > 100 µM (inactive) throughout.

Take `O=C(NCCCN1CCN(CCCNC(=O)Nc2cc(Cl)ccc2Cl)CC1)Nc1cc(Cl)ccc1Cl`: the GI50 in the assay with M14 was 27.4 µM (inactive); in the assay with COLO 205, 45.5 µM (inactive); in the assay with SN12C it was 83 µM (inactive); in the assay with LOX IMVI, 37 µM (inactive); in the assay on SK-MEL-28, 60.3 µM (inactive); with HCT-15, 65.3 µM. The GI50 was 80 µM (inactive) in the assay on RPMI-8226; > 100 µM (inactive) in the assay on RXF 393; > 100 µM (inactive) in the assay on SW-620; 87.7 µM (inactive) with NCI-H23; > 100 µM (inactive) in the assay on NCI-H226; > 100 µM (inactive) in the assay on NCI-H460. Further, the GI50 in the assay on ACHN is > 100 µM (inactive); with CAKI-1 it was > 100 µM (inactive); with SNB-75 it was 15 µM (inactive).

Regarding `CCOC(=O)c1ccc(NC(=O)SCCC(=O)O)cc1`, the GI50 in the assay with M14 is > 100 µM (inactive); with COLO 205 it was > 100 µM (inactive); with SN12C it was > 100 µM (inactive); in the assay with LOX IMVI it was 64.3 µM (inactive); with SK-MEL-28, > 100 µM (inactive); with HCT-15, above 100 µM. Further, the GI50 in the assay on RPMI-8226 is > 100 µM (inactive); in the assay on RXF 393, 8.04 µM (inactive); in the assay with EKVX, 0.841 µM (active); in the assay on SW-620, > 100 µM (inactive); in the assay with NCI-H23, > 100 µM (inactive); in the assay with NCI-H226, 3.15 µM (inactive). For the same molecule, the GI50 was > 100 µM (inactive) with NCI-H460, 51.1 µM (inactive) in the assay with ACHN and < 0.01 µM (active) with SNB-75.

Regarding `NC1=NCCC1(c1ccccc1)c1ccccn1` (stereo unspecified), the GI50 with M14 is > 100 µM (inactive); with COLO 205 it was > 100 µM (inactive); in the assay on SN12C, > 100 µM (inactive); in the assay on SK-MEL-28 it was > 100 µM (inactive); in the assay with HCT-15 it was above 100 µM; in the assay on RPMI-8226, > 100 µM (inactive). In addition, the GI50 with RXF 393, in the assay with EKVX, with SW-620, in the assay with NCI-H23, in the assay with NCI-H226 and in the assay with NCI-H460 was > 100 µM (inactive) each time. Further, the GI50 in the assay with ACHN, in the assay on CAKI-1 and in the assay on SNB-75 was > 100 µM (inactive) throughout.

Take `O=c1c(Br)cc2nc3ccccc3sc-2c1Br`: the GI50 with M14 was > 100 µM (inactive); in the assay on COLO 205 it was 36.3 µM (inactive); with SN12C, > 100 µM (inactive); in the assay with LOX IMVI, 61.7 µM (inactive); with SK-MEL-28, > 100 µM (inactive); in the assay with HCT-15 it was above 68.7 µM. Besides, the GI50 in the assay with RPMI-8226 was 18.5 µM (inactive); with RXF 393 it was > 100 µM (inactive); in the assay with EKVX it was > 74.6 µM (inactive); with SW-620, 68.1 µM (inactive); in the assay with NCI-H23 it was 29.9 µM (inactive); with NCI-H226, > 100 µM (inactive). Moreover, the GI50 in the assay with NCI-H460, in the assay with ACHN, with CAKI-1 and with SNB-75 was > 100 µM (inactive) throughout.

Regarding `Cc1cccc(NC2=NC(=O)C(CC(=O)Nc3ccc(Cl)cc3C)S2)c1` (stereo unspecified), the GI50 was > 100 µM (inactive) in the assay on M14; > 100 µM (inactive) in the assay on COLO 205; > 100 µM (inactive) with SN12C; > 100 µM (inactive) in the assay on LOX IMVI; > 100 µM (inactive) with SK-MEL-28; above 100 µM with HCT-15. Besides, the GI50 in the assay on RPMI-8226, in the assay with RXF 393, in the assay with EKVX, in the assay with SW-620, with NCI-H23 and in the assay with NCI-H226 was > 100 µM (inactive) throughout. Moreover, the GI50 with NCI-H460, in the assay on ACHN, in the assay with CAKI-1 and in the assay with SNB-75 was > 100 µM (inactive) throughout.

Turning to `CCC(O)CCCCCCCCCCCCCCC(=O)O` (stereo unspecified), the GI50 in the assay with M14 was > 100 µM (inactive); with COLO 205 it was > 100 µM (inactive); with SN12C, > 100 µM (inactive); in the assay on LOX IMVI, > 10 µM (inactive); in the assay with SK-MEL-28, > 100 µM (inactive); in the assay with RPMI-8226, 66.8 µM (inactive). Moreover, the GI50 with RXF 393, in the assay with EKVX, in the assay on SW-620, in the assay on NCI-H23, in the assay with NCI-H226 and with NCI-H460 was > 100 µM (inactive) in each case. In addition, the GI50 in the assay on ACHN, with CAKI-1 and in the assay on SNB-75 was > 100 µM (inactive) each time.

Regarding `CN(C)c1ccc(C(C#N)NNC(=O)Cc2ccccc2)cc1` (stereo unspecified), the GI50 with M14 was > 100 µM (inactive); with COLO 205, > 100 µM (inactive); in the assay with SN12C, > 100 µM (inactive); with LOX IMVI, > 100 µM (inactive); with SK-MEL-28, > 100 µM (inactive); in the assay on HCT-15, above 100 µM. Further, the GI50 in the assay with RPMI-8226, with RXF 393, in the assay with SW-620, with NCI-H23, with NCI-H226 and in the assay with NCI-H460 was > 100 µM (inactive) in each case. In addition, the GI50 in the assay on ACHN, with CAKI-1 and with SNB-75 was > 100 µM (inactive) in each case.
